How the values were obtained:
RSV-A2 [1] = experiment: CPE assay, RSV-A2 in HEp-2 cells; type: cell-based; details: human respiratory syncytial virus
Method: (§1) HEp-2, Vero, and BHK were seeded at 8,000 cells per well (cpw) in growth medium (Dulbecco’s Modified Eagle Medium (DMEM) with 1% GlutaMAX, 1% Penicillin/Streptomycin (P/S), 1% Non-Essential Amino Acids (NEAA), 10% Fetal Bovine Serum (FBS)) or (Minimum Essential Medium (MEM) with 10% FBS, 1% NEAA, 1% P/S) or (Eagle’s Minimum Essential Medium with L-Glutamine, with 10% FBS, 1% P/S) respectively. A549 seeded at 3,000 cpw in F-12K Kaighn’s Modification nutrient mixture with 10% FBS, 1% NEAA, 1% P/S. Cells seeded at time of infection in 96-well plates, final well volume 100μL. Compounds suspended in DMSO, serially diluted and added to wells at 0.5% final DMSO concentration. Viral stocks stabilized with 25% sucrose, previously titered using plaque assay, were added at desired MOI. Sucrose added to cells-only control wells to match percent added with virus. Unless otherwise noted, RSV-A strains were tested at 0.1 MOI and incubated for 5 days in a 37°C, 5% CO2 humidified incubator, and RSV-B at 0.5 MOI for 6 days. Cytopathic effect (CPE) determined using ATPlite (Perkin Elmer) measured with Envision luminometer. For RT-qPCR, RNA was extracted from whole well using Ambion RNAqueous-96 Automated Kit, and RT-qPCR run using Applied Biosystems TaqMan RNA-to-CT 1-Step Kit. […] All EC50s were calculated using the XLFit four-parameter logistic model 200 in Microsoft Excel.

RSV-A2 [2] = experiment: RT-qPCR assay, RSV-A2 in HEp-2 cells; type: cell-based; details: human respiratory syncytial virus
Method: as §1

RSV-B VR-955 [3] = experiment: RT-qPCR assay, RSV-B VR-955 in A549 cells; type: cell-based; details: human respiratory syncytial virus
Method: as §1

RSV-A Long = experiment: RT-qPCR assay, RSV-A Long in Vero cells; type: cell-based; details: human respiratory syncytial virus
RSV-A M37 = experiment: RT-qPCR assay, RSV-A M37 in primary HBECs; type: cell-based; details: human respiratory syncytial virus, primary HBEC
RSV-B VR-955 [4] = experiment: RT-qPCR assay, RSV-B VR-955 in primary HBECs; type: cell-based; details: human respiratory syncytial virus, primary HBEC
HEp-2 cells = experiment: Cytotoxicity (ATPlite) in HEp-2 cells; type: cell-based, human; details: at up to 50 μM, 3 days
Method: (§2) HEp-2, A549, and CHO cells were seeded at 3,000 cpw in their respective growth medium. CHO growth medium used was RPMI medium 1640 with 10% FBS, 1% P/S, 1% GlutaMAX. HEK-293 cells seeded at 10,000 cpw in DMEM growth medium. Undifferentiated HBECs were seeded in collagen-coated 96-well plates at 7,500 cpw in appropriate growth medium. Compound added and incubated for 3 days (4 days for HBECs) as described above. Plates read with ATPlite and CC50 calculated as EC50s as described above. SI = CC50/EC50 within a cell line.

[5] = Cytotoxicity (ATPlite) in CHO cells; type: cell-based; details: Chinese hamster, read-out: half-maximal cytotoxic concentration (CC50)
Method: as §2

[6] = test system: broad panel of other viruses; type: cell-based
RSV-B clinical isolates = experiment: RSV Virospot reduction assay (ViroClinics), RSV-B isolates from the Netherlands; type: cell-based; details: human respiratory syncytial virus, 10 RSV-B strains from the Netherlands
Method: To further expand testing against clinical isolates, the compound was assayed against a panel of 10 RSV-A and 10 RSV-B strains mainly isolated from children of age 2–200 weeks in the Netherlands.
RSV clinical isolates were obtained from Baylor University and Medical College of Wisconsin. MOI of 0.1 used for all clinical isolates except RSV-A 629-9-2 (0.01) and RSV-B 629-24/2007 (0.0044) due to low titer. Virospot reduction assay was run by ViroClinics (Rotterdam, the Netherlands) against 20 additional RSV clinical isolates.

[7] = Plasma drug exposure in African Green monkey study; type: in vivo, African Green monkeys (Chlorocebus); details: both sexes, plasma, 100 mg/kg BID oral, read-out: mean plasma Ctrough
Excerpt: The African green monkey model was selected for EDP-938 in vivo studies for its higher level of viral replication versus cotton rats and BALB/c mice. […] In this previous trial, patients who achieved RSV-604 levels in excess of the EC90 experienced a 2.31 log reduction in viral load. […] The lack of antiviral activity observed with RSV-604 could be a function of relatively poor potency compared to EDP-938 (Fig 1) and/or insufficient tissue exposure. While in this study the animals were not sacrificed and thus the drug level in the lung could not be determined, plasma samples were taken at 12h after the last dose (Ctrough) to confirm drug exposure. […] It is reasonable to project that given the same dose or exposure EDP-938 should perform better than RSV-604 in RSV infected patients as well.
A study of EDP-938 and RSV-604 in the African Green monkey (AGM) animal model was performed by BIOQUAL, Inc (Rockville, Maryland). Methods were similar to those run in a study by Ispas et al.. Six (6) male and 6 female AGMs (Chlorocebus) of 4–5 kg were purchased from PrimGen (Hines, Illinois). Each animal was challenged with 2 x 10^5 PFU of RSV A2 viral inoculum (Virapur, San Diego, CA). Four animals (2 per sex) in each group were treated with EDP-938, RSV-604, or vehicle control (0.5% w/v methylcellulose). […]

[8] = test system: recombinant RSV A2-line19F, N protein mutants; experiment: microbe, parasite or virus in culture; details: human respiratory syncytial virus

Work on `O=C1Nc2ccccc2C(c2ccccc2)=N[C@@H]1Nc1nnc(-c2ncc(C(F)(F)F)cc2N2CCOCC2)o1` [EDP-938] yielded an EC50 (RSV-A2 [1]) of 28 ± 4 nM, an EC90 (RSV-A2 [1]) of 40 ± 3 nM and an EC50 (RSV-A2 [2]) of 59 ± 18 nM. It also gave an EC90 (RSV-A2 [2]) of 70 ± 30 nM, an EC50 (RSV-B VR-955 [3]) of 83 ± 38 nM and an EC90 (RSV-B VR-955 [3]) of 170 ± 53 nM. The EC50 (RSV-A Long) was 79 ± 12 nM, the EC90 (RSV-A Long) was 118 ± 25 nM and the EC50 (RSV-A M37; 144 h, RSV-A M37 MOI 0.1, 6 days) was 23 ± 14 nM. The EC90 (RSV-A M37; RSV-A M37) was 36 ± 17 nM, the EC50 (RSV-B VR-955 [4]; 168 h, RSV-B VR-955 MOI 0.1, 7 days) was 64 ± 30 nM and the EC90 (RSV-B VR-955 [4]; RSV-B VR-955) was 74 ± 33 nM. The cytotoxicity (HEp-2 cells) was “no significant cytotoxicity”, the CC50 at 3 days [5] was about 27000 nM and the “activity against a broad panel of other viruses” value [6] was “did not demonstrate significant activity”. For the same compound, the EC50 (RSV-B clinical isolates) was 51 nM, the concentration at 12 h after the last dose [7] was 1480 nM and the EC50 ([8]; HEp-2, recombinant RSV N K107N) was 52 ± 6 nM. It also gave an EC50 ([8]; HEp-2, recombinant RSV N K136R) of 125 ± 20 nM, an EC50 ([8]; HEp-2, recombinant RSV N L139I) of 326 ± 83 nM and an EC50 ([8]; HEp-2, recombinant RSV N M109I) of 70 ± 26 nM. For the same compound, the EC50 ([8]; HEp-2, recombinant RSV N M109K) was 1220 nM, the EC50 ([8]; HEp-2, recombinant RSV N M109K mutant) was about 1200 nM and the EC50 ([8]; HEp-2, recombinant RSV N M109T) was 244 ± 61 nM. For the same compound, the EC50 ([8]; HEp-2, recombinant RSV N N105D) was 60 ± 44 nM, the EC50 ([8]; HEp-2, recombinant RSV N S134T) was 99 ± 26 nM and the EC50 ([8]; HEp-2, recombinant RSV N V90A) was 46 ± 29 nM. The EC50 ([8]; HEp-2, recombinant RSV Wild-type (WT), HEp2) was 45 ± 21 nM.

Source: article PMC7993833, “EDP-938, a novel nucleoprotein inhibitor of respiratory syncytial virus, demonstrates potent antiviral activities in vitro and in a non-human primate model” (PLoS Pathogens, 2021)
